Among the data in ChEMBL document CHEMBL1147073, “Signal peptide peptidase and gamma-secretase share equivalent inhibitor binding pharmacology” (J Biol Chem, 2007) are IC50 and Activity values, retold here.

Molecules are shown by their SMILES. Activity calls are given as the source filed them. No cut-off for these calls is given here.

For orientation: IC50 means the concentration at which inhibition is half-maximal.

Assay type in all cases: cell-based
The nature of assay [1]: Inhibition of SPP expressed in HEK293 cells in presence of Prl-PP peptide after 30 mins.
Assay [2] is described as follows: Displacement of [3H]L685458 from human SPP expressed in HEK293 cells. (In general: Loss of bound radioactivity is the signal in a displacement assay; it reports binding, not function.)
Assay [3] concerns the target Gamma-secretase. The experiment in a line: Displacement of [3H]L685458 from gamma-secretase in human THP1 cells. Particulars: thp-1.
Assay [4] has as its target Gamma-secretase. The assay can be described thus: Displacement of [3H]IN973 from gamma-secretase in human THP1 cells. Conditions: thp-1.
Another assay has as its system HEK293. The assay can be described thus: Inhibition of SPP expressed in HEK293 cells at 10 uM in presence of Prl-PP peptide after 30 mins.

For `CC(C)C[C@H](NC(=O)OCc1ccccc1)C(=O)N[C@@H](CC(C)C)C(=O)NCC(=O)CNC(=O)[C@H](CC(C)C)NC(=O)[C@H](CC(C)C)NC(=O)OCc1ccccc1`, the IC50 is 2 µM in assay [1], 0.0053 µM in assay [2], 0.0087 µM on Gamma-secretase [3] and 2.06 µM on Gamma-secretase [4].

On to `CSc1ccc(/C=C2/C(C)=C(CC(=O)O)c3cc(F)ccc32)cc1` [SULINDAC SULFIDE], for which the concentration for half-maximal inhibition (IC50) in assay [2] came out at 45.2 µM; at Gamma-secretase [3] it was 57.1 µM; on Gamma-secretase [4] it was 332 µM.

Consider `C[C@H](NC(=O)[C@@H](O)c1cc(F)cc(F)c1)C(=O)N[C@@H]1C(=O)N(C)N=Cc2ccccc21`, for which, in the assay with HEK293, the result was inactive. For the same molecule, the results for the IC50 at Gamma-secretase [3] and at Gamma-secretase [4] were 0.51 µM and 0.0012 µM, respectively.

As for `CC(C)C[C@H](NC(=O)[C@H](Cc1ccccc1)C[C@@H](O)[C@H](Cc1ccccc1)NC(=O)OC(C)(C)C)C(=O)N[C@@H](Cc1ccccc1)C(N)=O`, the half-maximal inhibitory concentration (IC50) in assay [1] is 10 µM; in assay [2] it was 0.01 µM; on Gamma-secretase [3], 0.0043 µM; on Gamma-secretase [4], 0.072 µM.

For `C[C@H](c1ccc(F)cc1CCCC(=O)O)N(c1cc(F)ccc1F)S(=O)(=O)c1ccc(Cl)cc1`, in the assay with HEK293, the outcome was inactive. Also, the IC50 in assay [2] is 28.7 µM; on Gamma-secretase [3] it was 25.6 µM; at Gamma-secretase [4] it was 0.012 µM.

With `C[C@H](NC(=O)Cc1cc(F)cc(F)c1)C(=O)N[C@H](C(=O)OC(C)(C)C)c1ccccc1`, in the assay with HEK293, the outcome was inactive. Besides, the values for the IC50 (in assay [2]; at Gamma-secretase [3]; at Gamma-secretase [4]) were 34.2 µM, above 100 µM and 0.0063 µM, respectively.

Take `CCC[C@H](C(N)=O)[C@@H](CC(C)C)C(=O)N[C@H]1N=C(c2ccccc2)c2ccccc2N(C)C1=O`: the result in the assay on HEK293 was inactive. In assay [2], this molecule displayed an IC50 of 0.56 µM.
